# Test results as given in paper PMC12505902, “Inhibitors of trehalose-6-phosphate synthase activity in fungal pathogens compromise thermal tolerance pathways” (mBio, 2025).
# How the values were obtained:
# Experiment in all cases: Fungicidal spot assay on compound-free YPD plates
# Type in all cases: cell-based
# C. neoformans = conditions: 37°C exposure
# Procedure: (§1) Fig 4 4456dh inhibits the growth of Candida and Cryptococcus species. Two-fold dose response assays were performed against (A) C. albicans at 42°C and C. auris at 39°C, (B) C. glabrata at 42°C, and (C) C. neoformans, C. deneoformans, and C. gattii at 37°C. 4456dh was administered at the concentrations indicated. Cultures were grown in YPD at the listed temperatures for 48 hours for Candida species and 72 hours for Cryptococcus species. Experimental temperatures reflect the temperatures at which the fungi experience heat stress. Left: relative growth of treated samples was calculated by averaging technical triplicates and normalizing the OD600 of each treated well to the average OD600 of the untreated WT controls, after the absorbance due to the compound was subtracted. The MIC80 values, calculated based on the OD600 values, are indicated in the white text on each heat map. Right: representative spot assays show the ability of cells to grow after exposure to 4456dh and indicate fungicidal activity of 4456dh. TEXT PRINTED IN THE PICTURE: (A) 4456dh: C. albicans 42 °C: 13 mM; C. auris 39 °C: 7 mM | (B) 4456dh: C. glabrata 42 °C: 7.8 μM | (C) 4456dh: C. neoformans 37 °C: 7 mM; C. deneoformans 37 °C: 3 mM; C. gattii 37 °C: 7 mM DOUBTS OF THE COPYIST ABOUT THIS PICTURE: 4456dh, all panels: the picture prints no measure name with the white values on the heat maps, so each value is given only with its organism and temperature
# (§2) We next tested the activity of 4456dh on Cryptococcus species at 37°C.
# (§3) 123 hours. […]
# (§4) 126 medium. Growth was plotted as a heat map using Excel.
# (§5) 127 Wild-t y pe C. neoformans strains H99, wild-type C. deneoformans JEC21 and wild- t y pe C. gattii
# (§6) 128 R265 were cultured overnight in YPD (yeast-peptone- dextrose) medium at 30 °C. Growth of the
# (§7) 129 overnight cultures was quantified by measuring the OD600 and corrected for the background
# (§8) 130 absorbance of the medium. Antifungal potency for 4456dh was assessed by minimum inhibitory
# (§9) 131 concentration (MIC) dose-response assays performed under standard Clinical and Lab Standards
# (§10) 132 Institute (CLSI) conditions. A volume of 125 µL from each cell suspension was dispensed into the
# (§11) 133 wells of 96-well flat-bottom microtiter plates (Corning). An additional 25 µL of 4456dh from a series
# (§12) 134 of dilutions from the 157 mM stock solution prepared in water was added to each well. Following […]
# (§13) 137 replicates. Growth, as determined by a reading of absorbance at 600 nm, was normalized to
# (§14) 138 untreated controls and was corrected for the absorbance of 4456dh in the YPD medium. […]
# (§15) 139 minimum inhibitory concentration causing 80% growth reduction, or MIC80, was determined based […]
# (§16) 157 Optical density (OD600) was determined with an Infinite PRO plate reader ( Tecan). […]
# C. deneoformans = system: C. deneoformans
# Procedure: as §1, §2, §3, §4, §5, §6, §7, §8, §9, §10, §11, §12, §13, §14, §15, §16
# C. gattii = conditions: 37°C exposure
# Procedure: as §1, §2, §3, §4, §5, §6, §7, §8, §9, §10, §11, §12, §13, §14, §15, §16
smiles,measurement,setting,value
Cn1cc(-c2csc(NC(=O)Cc3ccccn3)n2)cn1 [Compound 4456dh],fungicidal activity,C. neoformans,Fungicidal activity of 4456dh was also detected
same,fungicidal activity,"C. deneoformans; 30°C, 13 mM 4456dh",displayed fungicidal activity
same,fungicidal activity,C. deneoformans; 37°C exposure,Fungicidal activity of 4456dh was also detected
same,fungicidal activity,C. gattii,Fungicidal activity of 4456dh was also detected
